One assay concerns the target T1, ADAMTS4 (Homo sapiens, UniProt O75173).
T1 construct: purchased R&D 4307-AD
T1 sequence (O75173 213-685 limits assumed): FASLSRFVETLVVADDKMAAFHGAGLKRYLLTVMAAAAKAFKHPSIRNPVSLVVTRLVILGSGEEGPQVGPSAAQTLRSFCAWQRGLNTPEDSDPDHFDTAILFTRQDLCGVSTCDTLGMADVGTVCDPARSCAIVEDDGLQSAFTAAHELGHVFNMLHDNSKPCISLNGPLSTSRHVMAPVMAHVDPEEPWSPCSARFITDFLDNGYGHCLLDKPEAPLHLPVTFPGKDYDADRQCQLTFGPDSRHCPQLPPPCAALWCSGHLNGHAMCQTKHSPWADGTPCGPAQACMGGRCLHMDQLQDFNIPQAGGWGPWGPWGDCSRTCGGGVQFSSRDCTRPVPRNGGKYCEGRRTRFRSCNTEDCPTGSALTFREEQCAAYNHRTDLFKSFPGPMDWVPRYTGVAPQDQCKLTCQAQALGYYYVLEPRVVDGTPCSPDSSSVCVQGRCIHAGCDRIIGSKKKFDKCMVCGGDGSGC
Put plainly: Selectivity assay for ADAMTS-7 modulators (FRET), ADAMTS4. The format is biochemical. As to conditions: 50 nM enzyme (R&D 4307-AD), 1 μM Dabcyl/Edans FRET substrate, 120 min at 32° C. As for the experimental part:
The respective enzyme (see table 2 below) was diluted in reaction buffer (50 mM Tris, 2.5 μM ZnCl2, 0.05% BSA, 0.001% Brij, pH 7.5 for ADAM17; 50 mM Tris 7.5, 150 mM NaCl, 10 mM CaCl2, 0.05% Brij for all other enzymes) to the respective concentration and 25 μl were transferred into each well of a 384-well white microtiter plate (Greiner Bio One 781075). 1 μl test compound solution (dissolved in DMSO, at the corresponding concentration) or pure DMSO as a control was added per well. The enzymatic reaction was initiated by addition of 25 μl of the respective concentration of the respective FRET substrate (see table 2 below) in reaction buffer. The microtiter plate was incubated for 120 min at the temperature of 32° C. The increase of fluorescence intensity was measured in appropriate fluorescence plate reader (e.g. TECAN Ultra) using the respective wavelengths for excitation and emission. IC50 values were calculated from percentage of inhibition of enzyme activity as a function of test compound concentration.

The target in assay [1] is T2, Purified recombinant ADAMTS-7 (rat prodomain/human catalytic domain, SEQ ID No. 01 or 02) (Homo sapiens, UniProt Q9UKP4).
T2 construct: rat ADAMTS-7 signal peptide + prodomain (rat 1-217, Q1EHB3) (N); 2xStrep tag (C); 6xHis tag (C); made in house; host or cells: Expi293 cells
T2 sequence (Q9UKP4 237-537): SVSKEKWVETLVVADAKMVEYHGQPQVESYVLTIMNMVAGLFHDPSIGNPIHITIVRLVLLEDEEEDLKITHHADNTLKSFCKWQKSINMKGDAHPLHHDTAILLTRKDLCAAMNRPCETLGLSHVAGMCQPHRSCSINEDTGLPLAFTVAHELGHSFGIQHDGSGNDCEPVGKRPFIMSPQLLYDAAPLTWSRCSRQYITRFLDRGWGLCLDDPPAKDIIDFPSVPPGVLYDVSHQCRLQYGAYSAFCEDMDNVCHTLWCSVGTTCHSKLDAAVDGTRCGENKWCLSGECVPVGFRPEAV
The experiment in a line: Assay for ADAMTS-7 enzymatic activity (FRET substrate cleavage). The format is biochemical. As to conditions: FRET substrate SEQ ID No. 11, 120 min at 32° C.; read-out: ADAMTS7-IC50. The method, then:
Purified recombinant ADAMTS-7 (as of SEQ ID No. 01 or SEQ ID No. 02) was diluted in reaction buffer (20 mM HEPES pH 8.0, 150 mM NaCl, 5 mM CaCl2, 0.004% Brij, 10 μM ZnCl2) fora concentration of approximately 20 nM. 25 μl of the solution were transferred into each well of a 384-well white microtiter plate (Greiner Bio-One 781075) and 1 μl test compound solution (modulator/inhibitor dissolved in DMSO, at the corresponding concentration) or pure DMSO as a control were added per well. […] Amino acids […] are derived from Thrombospondin-1 sequence (275-289). An additional carboxyl glutamic acid was added after the QXL520 quencher to increase substrate solubility. The microtiter plate was incubated for 120 min at the temperature of 32° C. The increase of fluorescence intensity was measured in appropriate fluorescence plate reader (e.g. TECAN Ultra) using excitation wavelength of 485 nm and emission wavelength of 520 nm. IC50 values were calculated from percentage of inhibition of ADAMTS-7 activity as a function of test compound concentration.

`N#Cc1cccc(-n2ncc(C(=O)NCC3(C4CCC4)NC(=O)NC3=O)n2)c1` (single isomer, unassigned; ent-2) [Example 92, ent-2-(3-cyanophenyl)-N-[(4-cyclobutyl-2,5-dioxoimidazolidin-4-yl)methyl]-2H-1,2,3-triazole-4-carboxamide]: the results for the IC50 (at ADAMTS4; in assay [1]) were 4000 nM and 78 nM, respectively.
The like results for `Cn1ccnc1C1(CNC(=O)c2cnn(-c3ccc(F)cc3)n2)NC(=O)NC1=O` (racemic) [Example 141, rac-2-(4-fluorophenyl)-N-{[4-(1-methyl-1H-imidazol-2-yl)-2,5-dioxoimidazolidin-4-yl]methyl}-2H-1,2,3-triazole-4-carboxamide] were, in that order, 320 nM and 4 nM.
For `CC(C)C1(CNC(=O)c2cnn(-c3cccc(F)c3)n2)NC(=O)NC1=O` (single isomer, unassigned; ent-2) [Example 119, ent-2-(3-fluorophenyl)-N-[(4-isopropyl-2,5-dioxoimidazolidin-4-yl)methyl]-2H-1,2,3-triazole-4-carboxamide], the IC50 (in general, the concentration needed to halve the response being measured) was found to be 2300 nM against ADAMTS4 and 13 nM in assay [1].
In the case of `CC(C)C1(CNC(=O)c2cnn(-c3ccc(F)c(Cl)c3)n2)NC(=O)NC1=O` (single isomer, unassigned; ent-2) [Example 126, ent-2-(3-chloro-4-fluorophenyl)-N-[(4-isopropyl-2,5-dioxoimidazolidin-4-yl)methyl]-2H-1,2,3-triazole-4-carboxamide], the values for the IC50 (against ADAMTS4; in assay [1]) were 12000 nM and 190 nM, respectively.
As to `O=C1NC(=O)C(CNC(=O)c2cnn(-c3ccc(F)cc3)n2)(c2cccnc2)N1` (racemic) [Example 23, rac-N-{[2,5-dioxo-4-(pyridin-3-yl)imidazolidin-4-yl]methyl}-2-(4-fluorophenyl)-2H-1,2,3-triazole-4-carboxamide], the IC50 at ADAMTS4 is 4500 nM; in assay [1], 30 nM.
As to `CC(C)C1(CNC(=O)c2cnn(-c3cccc(C#N)c3)n2)NC(=O)NC1=O` (racemic) [Example 120, rac-2-(3-cyanophenyl)-N-[(4-isopropyl-2,5-dioxoimidazolidin-4-yl)methyl]-2H-1,2,3-triazole-4-carboxamide], the results for the IC50 (on ADAMTS4; in assay [1]) were 6000 nM and 170 nM, respectively.
Consider `O=C1NC(=O)[C@](CNC(=O)c2cnn(-c3ccc(Cl)c(F)c3)n2)(C2CC2)N1` [Example 30, 2-(4-chloro-3-fluorophenyl)-N-{[(4R)-4-cyclopropyl-2,5-dioxoimidazolidin-4-yl]methyl}-2H-1,2,3-triazole-4-carboxamide], for which the IC50 was determined as 500 nM against ADAMTS4 and 12 nM in assay [1].
The like results for `O=C1NC(=O)C(CNC(=O)c2cnn(-c3ccc(F)c(Cl)c3)n2)(c2nccs2)N1` (single isomer, unassigned; ent-2) [Example 112, ent-2-(3-chloro-4-fluorophenyl)-N-{[2,5-dioxo-4-(1,3-thiazol-2-yl)imidazolidin-4-yl]methyl}-2H-1,2,3-triazole-4-carboxamide] were, in that order, 780 nM and 14 nM.
For `O=C1NC(=O)C(CNC(=O)c2cnn(-c3ccc(F)cc3)n2)(c2cscn2)N1` (stereo not drawn) [Example 148, ent-N-{[2,5-dioxo-4-(1,3-thiazol-4-yl)imidazolidin-4-yl]methyl}-2-(4-fluorophenyl)-2H-1,2,3-triazole-4-carboxamide], in that order: 2500 nM and 12 nM.
As to `C[C@H](NC(=O)c1cnn(-c2ccccc2)n1)C1(C2CC2)NC(=O)NC1=O` (stereo partly drawn) [Example 40, ent-N-((1S)-1-(4-Cyclopropyl-2,5-dioxoimidazolidin-4-yl)ethyl)-2-phenyl-2H-1,2,3-triazole-4-carboxamide], the IC50 on ADAMTS4 stood at 25000 nM; in assay [1], 980 nM.
The like results for `COc1ccc(-n2ncc(C(=O)NC[C@@]3(C4CC4)NC(=O)NC3=O)n2)cc1` [Example 27, N-{[(4R)-4-cyclopropyl-2,5-dioxoimidazolidin-4-yl]methyl}-2-(4-methoxyphenyl)-2H-1,2,3-triazole-4-carboxamide] were, in that order, 6000 nM and 100 nM.
The like results for `CC(C)C1(CNC(=O)c2cnn(-c3cccc(C#N)c3)n2)NC(=O)NC1=O` (single isomer, unassigned; ent-2) [Example 121, ent-2-(3-cyanophenyl)-N-[(4-isopropyl-2,5-dioxoimidazolidin-4-yl)methyl]-2H-1,2,3-triazole-4-carboxamide] were, in that order, 2600 nM and 78 nM.
The like results for `O=C1NC(=O)[C@](CNC(=O)c2cnn(-c3cccc(F)c3)n2)(C2CC2)N1` [Example 1, N-{[(4R)-4-cyclopropyl-2,5-dioxoimidazolidin-4-yl]methyl}-2-(3-fluorophenyl)-2H-1,2,3-triazole-4-carboxamide] were, in that order, 580 nM and 13 nM.
Regarding `O=C1NC(=O)[C@](CNC(=O)c2cnn(-c3nc4ccccc4s3)n2)(C2CC2)N1` [Example 105, 2-(1,3-benzothiazol-2-yl)-N-{[(4R)-4-cyclopropyl-2,5-dioxoimidazolidin-4-yl]methyl}-2H-1,2,3-triazole-4-carboxamide], the values for the IC50 (at ADAMTS4; in assay [1]) were 11000 nM and 190 nM, respectively.
The like results for `CCC(C)C1(CNC(=O)c2cnn(-c3ccc(F)cc3)n2)NC(=O)NC1=O` (centres unmarked) [Example 102, diamix-N-[(4-sec-butyl-2,5-dioxoimidazolidin-4-yl)methyl]-2-(4-fluorophenyl)-2H-1,2,3-triazole-4-carboxamide] were, in that order, 2900 nM and 62 nM.
For `O=C1NC(=O)C(CNC(=O)c2cnn(-c3ccc(F)cc3F)n2)(c2nccs2)N1` (single isomer, unassigned; ent-2) [Example 116, ent-2-(2,4-difluorophenyl)-N-{[2,5-dioxo-4-(1,3-thiazol-2-yl)imidazolidin-4-yl]methyl}-2H-1,2,3-triazole-4-carboxamide], in that order: 5500 nM and 78 nM.
For `CCCC1(CNC(=O)c2cnn(-c3ccc(F)cc3)n2)NC(=O)NC1=O` (stereo not drawn) [Example 73, ent-N-[(2,5-dioxo-4-propylimidazolidin-4-yl)methyl]-2-(4-fluorophenyl)-2H-1,2,3-triazole-4-carboxamide], in that order: 5100 nM and 60 nM.
As to `O=C1NC(=O)C(CNC(=O)c2cnn(-c3ccccc3)n2)(C2CCOCC2)N1` (racemic) [Example 61, rac-N-[(4-(oxan-4-yl)-2,5-dioxoimidazolidin-4-yl)methyl]-2-phenyl-2H-1,2,3-triazole-4-carboxamide], the values for the IC50 (on ADAMTS4; in assay [1]) were 9950 nM and 128 nM, respectively.
The like results for `O=C1NC(=O)C(CNC(=O)c2cnn(-c3cccc(Cl)c3)n2)(C2CCC2)N1` (single isomer, unassigned; ent-2) [Example 96, ent-2-(3-chlorophenyl)-N-[(4-cyclobutyl-2,5-dioxoimidazolidin-4-yl)methyl]-2H-1,2,3-triazole-4-carboxamide] were, in that order, 2200 nM and 48 nM.

(Values after US20230027985A1, “SUBSTITUTED HYDANTOINAMIDES AS ADAMTS7 ANTAGONISTS” (Bayer Aktiengesellschaft, priority 2019, published 2023).)
